Reference: patent US20100092443A1, “NOVEL COMBINATIONS OF NITROGENATED HETEROCYCLIC ANTIBACTERIAL COMPOUNDS WITH OTHER ANTIBACTERIAL COMPOUNDS AND THE USE OF SAME AS DRUGS” (priority 2008, published 2010)
Where a name gives a salt, the structure may show the parent alone.

Experiments:
P. aeruginosa (391 HT2) [1] = experiment: MICs determined on microplates; assay type: cell-based, Pseudomonas aeruginosa; settings: sensitive strain P. aeruginosa 391 HT2
Protocol: (§1) The minimum inhibitory concentrations (MICs) of the products to be tested (products alone and combinations) are determined in advance. • For each concentration of product to be tested as well as the control stock, an Erlenmeyer flask containing 18.5 ml Muller-Hinton medium (Ca^++) is prepared. • From an overnight culture in broth or a bacterial suspension of OD (optical density)=1, a 1/100 dilution is prepared. • The sample is cultured with agitation for 2 h at 37° C. • OD is measured: if >0.5, the sample is diluted to 1/10. • Each Erlenmeyer flask is inoculated with 1 ml of the agitated culture or its dilution. The initial inoculum should be 1×10^6 CFU/ml. • The various antibiotic solutions are added at a volume of 0.5 ml and 0.5 ml of medium in the control Erlenmeyer flask. • With a volume of 0.1 ml, the control Erlenmeyer flask is numbered=TO. • The flask is incubated at 37° C. with agitation. • At each sampling point (2, 4, 6, 24, 48 hours), a volume of 0.1 ml is sampled from each Erlenmeyer flask and numbered. • Plates for all the numbered samples are incubated (24 h-48 h) at 37° C.
Bactericidal activity was evaluated on a sensitive strain of P. aeruginosa (391 HT2)

P. aeruginosa (391 HT2) [2] = experiment: MICs in a volume of 10 ml, bactericidal conditions (exponential bacterial growth); assay type: cell-based, Pseudomonas aeruginosa
Protocol: as §1
For the bactericidal tests, MICs are determined in a volume of 10 ml-bactericidal conditions (exponential bacterial growth): […]

Row | Compound | MIC (P. aeruginosa (391 HT2) [1]; Pseudomonas aeruginosa) | MIC (P. aeruginosa (391 HT2) [2]; Pseudomonas aeruginosa) | MIC determined on microplates (P. aeruginosa (391 HT2) [1]) | MIC in a volume of 10 ml, bactericidal conditions (P. aeruginosa (391 HT2) [2])
1 | CC(C)(O/N=C(\C(=O)N[C@@H]1C(=O)N2C(C(=O)[O-])=C(C[n+]3ccccc3)CS[C@H]12)c1csc(N)n1)C(=O)O [Ceftazidime] | 2 µg/mL | 8 µg/mL | – | –
2 | Cn1ncc2c1[C@@H](CN)N1C[C@H]2N(OS(=O)(=O)O)C1=O (relative stereo) [NXL105, Sodium and Trifluoroacetate Salts of trans 8-(aminomethyl)-4,8-dihydro-1-methyl-5-(sulphooxy)-4,7-methano-7H-pyrazolo[3,4-e][1,3]diazepin-6(5H)-one] | – | – | 0.25 µg/mL | 0.25 µg/mL
